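Method: 48-hour compound exposure of cells in 96-well plates, five concentrations, linear interpolation of endpoints. The concentration for 50% growth inhibition is given as GI50. Definition used: TGI = concentration required for complete inhibition of growth.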
Legend:
Assay in all cases: DTP human tumour cell line panel, 48 h
SF-268 CNS = system: SF-268 CNS
IGROV1 ovarian = system: IGROV1 ovarian
NCI-H522 lung = system: NCI-H522 lung
SNB-19 CNS = system: SNB-19 CNS
OVCAR-8 ovarian = system: OVCAR-8 ovarian
HS 578T breast = system: HS 578T breast
DU-145 prostate = system: DU-145 prostate
OVCAR-3 ovarian = system: OVCAR-3 ovarian

SMILES	TGI (SF-268 CNS) [µM]	TGI (IGROV1 ovarian) [µM]	TGI (NCI-H522 lung) [µM]	TGI (SNB-19 CNS) [µM]	TGI (OVCAR-8 ovarian) [µM]	TGI (HS 578T breast) [µM]	TGI (DU-145 prostate) [µM]	TGI (OVCAR-3 ovarian) [µM]	GI50 (SF-268 CNS) [nM]	GI50 (IGROV1 ovarian) [nM]	GI50 (NCI-H522 lung) [nM]	GI50 (SNB-19 CNS) [nM]	GI50 (OVCAR-3 ovarian) [nM]	GI50 (OVCAR-8 ovarian) [nM]	GI50 (HS 578T breast) [µM]	GI50 (DU-145 prostate) [nM]
CC(NC(=O)Cc1ccccc1)NC(=O)C(C)C(=O)Nc1ccccc1 (centres undefined)	> 100	> 100	> 100	75.8	> 100	88	> 100	–	–	–	–	–	–	–	–	–
CC1=CCC([C@@](C)(O)CCCC(C)(C)N=C=S)CC1 (some centres undefined)	31.6	40.3	33.8	31.1	32.7	55.4	30.7	32.6	–	–	–	–	–	–	–	–
CC(c1ccccc1)N1CCN(C(C)c2ccccc2)CC1 (centres undefined)	> 100	> 100	> 100	> 100	> 100	> 100	> 100	> 100	–	–	–	–	–	–	–	–
Nc1ccc(N=Nc2c(S(=O)(=O)O)cc3ccccc3c2S(=O)(=O)O)cc1	> 100	> 100	> 100	> 100	> 100	> 100	> 100	> 100	–	–	–	–	–	–	–	–
COC(=O)/C=C\C(C#N)(C#N)N=Cc1ccc(C)cc1	9.33	26.3	1.64	43.1	6.12	45.3	15.7	5.82	–	–	–	–	–	–	–	–
COc1ccc(C2c3cn[nH]c3CC3CCCCC32)cc1 (centres undefined)	39.6	26.6	36.3	43.5	35.6	–	26.3	28.9	–	–	–	–	–	–	–	–
O=S(=O)(O)C(CO)c1ccccc1 (centres undefined) (tested in a mixture with another compound)	> 100	> 100	> 100	> 100	> 100	> 100	> 100	> 100	–	–	–	–	–	–	–	–
COc1ccc(N2C(=O)CC(=O)N(NC(=O)C(C)Oc3ccccc3C)C2=S)cc1 (centres undefined)	> 100	> 100	> 100	> 100	> 100	> 100	> 100	> 100	–	–	–	–	–	–	–	–
CCCCCC#CCOC(=O)C(=[N+]=[N-])P(=O)(c1ccccc1)c1ccccc1	> 10	> 10	–	> 10	> 10	> 10	> 10	> 10	–	–	–	–	–	–	–	–
O=C(O)CN1CCN2CCCCCN(CC1)CCN(CC(=O)O)CC2	–	> 100	> 100	> 100	> 100	> 100	> 100	> 100	–	–	–	–	–	–	–	–
O=C1NC2c3c(I)sc(I)c3C(O)C2O1 (centres undefined)	> 100	> 100	–	> 100	> 100	> 100	> 100	> 100	–	–	–	–	–	–	–	–
CCCNc1ncnc2c1ncn2C	–	> 100	> 100	> 100	> 100	–	> 100	> 100	–	–	–	–	–	–	–	–
S=C1NC2=C(CSC/C2=C\c2cccc(Br)c2)C(c2cccc(Br)c2)N1 (centres undefined)	> 100	> 100	> 100	> 100	> 100	> 100	> 100	> 100	–	–	–	–	–	–	–	–
Cc1nn(-c2ccccc2)c2c1C(c1cc3ccccc3nc1Cl)NC(=O)N2 (centres undefined)	> 100	24.9	35.4	48.1	47.4	96.2	> 100	> 100	–	–	–	–	–	–	–	–
COc1ccc(C(=O)/C=C/c2ccc(OCCCOc3ccc(/C=C/C(=O)c4ccc(OC)cc4)cc3)cc2)cc1	> 100	> 100	–	> 100	> 100	> 100	> 100	–	–	–	–	–	–	–	–	–
Clc1ccc(-c2nnc3sc4nc5ccccc5c-4nn23)c(Cl)c1	> 100	–	> 100	> 100	> 100	> 100	> 100	> 100	–	–	–	–	–	–	–	–
O=C(O)CN1CCNCCN(CC(=O)O)CCN(CC(=O)O)CCNCC1	–	> 100	> 100	> 100	> 100	> 100	> 100	> 100	–	–	–	–	–	–	–	–
Nc1ncc(-c2ccc3ncnc(Nc4ccc(F)c(Cl)c4)c3c2)cn1	68.5	2.43	8.92	23.5	17.5	3.52	> 100	2.57	2480	258	1700	3530	1200	2960	1.19	759
COc1cc(O)c2c(c1)C(=O)c1cc3c(c(O)c1C2=O)C(OC1OC(C)C(OC)C(O)C1OC)C(OC)C(C)(O)C3=O (centres undefined)	36.3	6.5	3.62	23.3	10.8	33.3	–	22.6	–	–	–	–	–	–	–	–

SMILES	TGI (SF-268 CNS) [µM]	TGI (IGROV1 ovarian) [µM]	TGI (NCI-H522 lung) [µM]	TGI (SNB-19 CNS) [µM]	TGI (OVCAR-8 ovarian) [µM]	TGI (HS 578T breast) [µM]	TGI (DU-145 prostate) [µM]	TGI (OVCAR-3 ovarian) [µM]	GI50 (SF-268 CNS) [nM]	GI50 (IGROV1 ovarian) [nM]	GI50 (NCI-H522 lung) [nM]	GI50 (SNB-19 CNS) [nM]	GI50 (OVCAR-3 ovarian) [nM]	GI50 (OVCAR-8 ovarian) [nM]	GI50 (HS 578T breast) [µM]	GI50 (DU-145 prostate) [nM]
Cc1nc(C)c(C(=O)NNC(=O)C[N+](C)(C)C)cc1C(=O)NNC(=O)C[N+](C)(C)C	> 100	> 100	–	> 100	> 100	–	> 100	> 100	–	–	–	–	–	–	–	–
CC(=O)NC1C(OCc2ccccc2)OC(CO)C(O)C1OCC(=O)N[C@@H](C)C(=O)N[C@H](CCC(=O)NCCCNc1c2ccccc2nc2cccc([N+](=O)[O-])c12)C(N)=O (some centres undefined)	–	0.606	0.0383	0.552	1.71	0.675	–	0.566	–	–	–	–	–	–	–	–
O=C(CCn1ccnc1[N+](=O)[O-])NCCCn1ccnc1[N+](=O)[O-]	> 100	> 100	> 100	–	> 100	> 100	> 100	> 100	–	–	–	–	–	–	–	–
CC(C)c1cc2c(c(O)c1O)[C@@]1(C(=O)O)CCCC(C)(C)[C@@H]1CC2	41.3	36.9	25.8	–	30.1	67.8	> 100	57.3	–	–	–	–	–	–	–	–
S=c1c2cn[nH]c2nc2scc(-c3ccc(Cl)cc3)n12	42.5	–	46.9	86.2	41.7	38.8	–	47.8	–	–	–	–	–	–	–	–
COc1cnc2c(c1)C(=O)c1c-2n(CCCN2CCOCC2)c(=O)c2cc(Cl)ccc12	> 100	–	> 100	> 100	> 100	> 100	> 100	> 100	288	–	244	310	783	578	24.9	410
Cc1c(O)nc(-n2[nH]c3c(c2=O)CCCC3)[nH]c1=O	> 100	> 100	> 100	> 100	> 100	> 100	> 100	–	–	–	–	–	–	–	–	–
CCOC(=O)c1c(-c2ccc(O)c(OC)c2)c(C#N)c(=S)n(C2OC(CO)C(O)C(O)C2O)c1-c1ccccc1 (centres undefined)	> 100	> 100	–	> 100	> 100	> 100	> 100	> 100	–	–	–	–	–	–	–	–
CNc1cc2c(c3ccccc13)C(CCl)CN2C(=O)c1cc2cc(OC)c(OC)c(OC)c2[nH]1 (centres undefined)	–	0.128	–	0.107	0.0124	0.0379	–	1.32	–	–	–	–	–	–	–	–
N[C@@H](Cc1ccccc1)C(=O)N1CCC[C@@H]1P(=O)(Oc1ccccc1)Oc1ccccc1	> 100	> 100	–	> 100	> 100	> 100	> 100	> 100	–	–	–	–	–	–	–	–
NS(=O)(=O)c1ccc(NC(=S)/N=C/C2=C(O)c3ccccc3C2=O)cc1	> 100	> 100	> 100	> 100	–	> 100	> 100	> 100	–	–	–	–	–	–	–	–
COc1cccc(N2C(Cl)C(=O)C2c2c[nH]c3ccccc23)c1 (centres undefined)	> 100	> 100	> 100	> 100	> 100	–	–	> 100	–	–	–	–	–	–	–	–
O=C1CC2(CCC(O)(c3ccc4ccccc4c3)C(C(=O)c3ccc4ccccc4c3)C2)C(=O)c2ccccc2N1 (centres undefined)	> 100	> 100	–	> 100	> 100	> 100	> 100	> 100	–	–	–	–	–	–	–	–
CCOc1cc(/C=C2/C(C)=NN(c3cccc(Cl)c3)/C2=N/c2nc3ccccc3s2)ccc1O	86.1	> 100	52.7	–	> 100	68.6	> 100	50.8	–	–	–	–	–	–	–	–
COc1cc(OC)cc(C(=O)CC(=O)c2cc(OC)cc(OC)c2)c1	> 100	> 100	–	> 100	> 100	> 100	> 100	> 100	–	–	–	–	–	–	–	–
O=C(NCP(=O)(Oc1ccccc1)Oc1ccccc1)OCc1ccccc1	> 100	> 100	> 100	> 100	> 100	> 100	–	> 100	–	–	–	–	–	–	–	–
O=C1c2ccccc2C(=O)N1n1c(Cc2ccc([N+](=O)[O-])cc2)n[nH]c1=O	> 100	> 100	> 100	> 100	> 100	–	> 100	> 100	–	–	–	–	–	–	–	–
CC1(C)OC[C@@H](O)[C@H](C#N)CO1	> 100	–	> 100	> 100	> 100	> 100	> 100	> 100	–	–	–	–	–	–	–	–
O=C1C=C/C(=N\N=C(c2ccccc2)c2ccccc2)O1	> 10	> 10	–	–	> 10	–	> 10	–	–	–	–	–	–	–	–	–

From PubChem BioAssay (NCI)
